What was measured:
[1] = tested on: CL-1-5 xenografts; conditions: CL-1-5 xenograft; LY294002 40 mg/Kg QD×9, triciribine 1 mg/Kg Q2D×5, BO-1509 10 mg/Kg
[2] = tested on: NTUB1/P cells (cisplatin-resistant); conditions: NTUB1/P vs NTUB1, stated with ref [37]; cited from earlier work
[3] = tested on: NTUB1/P cells (cisplatin-resistant); experiment: Cell viability, WST-1 assay; format: cell-based, human; conditions: for IC50: NTUB1/P cells, agent alone
Excerpt: (§1) Cell Lines and Cell Culture. H460 (human lung large cell carcinoma cells), H1299 (human lung large cell carcinoma p53-deficient cells), PC3 (human prostate carcinoma cells), U87 (human glioma cells), and MCF7 (human breast carcinoma cells) were purchased from the American Type Culture Collection (Rockville, Md.). OEC-M1 (human gingival squamous cell carcinoma cells) was obtained from Dr. C.-L. Meng (National Defense Medical College, Taiwan). NTUB1 (human bladder transitional carcinoma cells) and the cisplatin-resistant sub-line NTUB1/P were provided by Dr. Y.-S. Pu (National Taiwan University Hospital, Taiwan). CL-1-5 (human lung adenocarcinoma cells) was obtained from Dr. P. C. Yang (National Taiwan University). All cell lines (except U87, which was grown in MEM medium) were cultured in RPMI1640 medium supplemented with 10% FBS and antibiotics, and incubated at 37° C. in a humidified atmosphere with 5% CO2.
(§2) Measurement of Cell Viability. Cell viability was assessed using the cell proliferation reagent WST-1 (Roche Molecular Biochemicals, Penzberg, Germany), which is a tetrazolium salt that is cleaved by mitochondrial dehydrogenase in viable cells. In brief, 2,000-7,000 cells were seeded in each well of 96-well plates and incubated at 37° C. overnight prior to drug treatment. After a 72-h incubation with BO-1012 alone (0.1˜80 μM), ATO alone (1˜8 μM), or BO-1012 plus ATO, WST-1 solution was added to each well at a 1:10 dilution, and cells were incubated at 37° C. in 5% CO2 for 4 h. Cell viability was assessed by absorbance at 460 nm using an automatic enzyme-linked immunosorbent assay (ELISA) plate reader. The IC50 value for each drug, alone or in combination, was calculated using CompuSyn software (version 1.0.1; CompuSyn, Inc.). The interactions between ATO and BO-1012 were evaluated by the Chou-Talalay combination indices (CI), where CI<1 indicates synergy; CI=1, additivity; and CI>1, antagonism.

[4] = tested on: NTUB1 cells; experiment: Cell viability, WST-1 assay; format: cell-based, human; conditions: agent alone
Excerpt: as §1, §2

[5] = tested on: DNA ICLs in H460 cells; experiment: Modified comet assay, formation and repair of DNA ICLs; format: cell-based, human; conditions: treated 1 h
Protocol: (§3) H460 cells were treated with various concentrations of BO-1012, melphalan, or thiotepa for 1 h and then subjected to the modified comet assay as described in Materials and Methods. Percentage of DNA ICLs was calculated by the percentage of decrease in tail moment. […] H460 cells were treated with 40 μM BO-1012 for 1 h, washed, and then treated with 8 μM ATO for 16, 24, and 48 h. *, p<0.05 as compared to BO-1012 alone at the indicated time. […] H460 cells were treated with BO-1012 and ATO, alone or in combination, as described above. After treatment, the detection of γH2AX (green) immunofluorescence staining was performed as described in Materials and Methods. Nuclei were stained by DAPI (blue).
Modified Single-Cell Gel Electrophoresis (Comet) and DNA ICL Repair Assays. The formation and the repair of DNA ICLs in H460 cells was analyzed using a modified comet assay as described previously.

[6] = tested on: H460 xenografts; experiment: H460 xenograft mouse model; format: in vivo, nude mice; conditions: 2.5 mg/kg BO-1012 and/or 5 mg/kg ATO, i.v., QD×5
[7] = tested on: NTUB1 xenografts; experiment: NTUB1 xenograft mouse model; format: in vivo, nude mice; conditions: 2.5 mg/kg BO-1012 or 5 mg/kg ATO, i.v., QD×5
[8] = tested on: NTUB1/P xenografts; experiment: NTUB1/P xenograft mouse model; format: in vivo, nude mice; conditions: 5 mg/kg ATO, i.v., QD×5
[9] = tested on: γH2AX nuclear foci in H460 cells; experiment: γH2AX nuclear foci, immunofluorescence staining; format: cell-based, human; conditions: time not stated
Protocol: as §3
Immunofluorescence Staining. H460 cells were cultured onto slides and then treated with BO-1012 and ATO, separately and in combination as described above, for 24, 48, or 72 h. To visualize γH2AX, cells were washed with cold PBS and fixed with 100% ice-cold methanol for 30 min. Slides were washed with PBS and incubated with anti-γH2AX antibody for 2 h at room temperature followed by Alexa Fluor 488-conjugated secondary antibodies (Molecular Probes, Eugene, Oreg.) and DAPI. After mounting with 50% glycerol, slides were subjected to confocal image analysis (Radiance 2100 System, Bio-Rad). Cells with at least four γH2AX foci in nuclei were counted as positive.

Compound | IC50 [3] | IC50 [4] | formation of ICLs [5] | further results
O=c1cc(N2CCOCC2)oc2c(-c3ccccc3)cccc12 [LY294002, 2-(4-morpholinyl)-8-phenyl-chromone] |  |  |  | suppression of tumor growth [1]: unable to suppress the tumor growth at all
N.N.[Cl][Pt][Cl] [cisplatin] | 212 µM | 3.6 µM |  | fold more resistant to cisplatin than the parental cells [2]: 60 fold
N[C@@H](Cc1ccc(N(CCCl)CCCl)cc1)C(=O)O [melphalan] |  |  | increased in a dose-dependent fashion | 
S=P(N1CC1)(N1CC1)N1CC1 [thiotepa] |  |  | increased in a dose-dependent fashion | 
arsenic trioxide [ATO] | 3.8 µM | 0.4 µM | did not cause ICLs | time to achieve a tumor volume of 500 mm^3 [6]: 7.1 days; growth of NTUB1 tumors [7]: did not effectively suppress; fold more resistant, NTUB1/P than NTUB1 cells ([3]; ratio of IC50 values): 9.5 fold; growth of NTUB1/P tumors [8]: did not effectively suppress; percentage of cells with γH2AX foci [9]: 26.8%
